In patent US5432064A, “Process for dephosphorylating linear polynucleotide substrate with prosphatase form aspergillus niger” (Board of Regents of the University of Nebraska, priority 1992, dated 1995):

Target: Aspergillus niger heat-labile phosphatase (4-nitrophenylphosphatase), purified, strain NRRL-3
Assay: A. niger phosphatase activity assay with 4-NPP as substrate (formation of p-nitrophenol at 400 nm)
Format: biochemical
Description: A. niger phosphatase activity was routinely determined by monitoring, in a spectrophotometer set at an absorbance wavelength of 400 nm, the formation of p-nitrophenol generated by the hydrolysis of 4-NPP (purchased from Calbiochem). Non-enzymatic hydrolysis controls were routinely included. The phosphatase assay contained the following in a total volume of 1.0 ml: 8 mM 4-NPP; 25 mM Tris-HCl (pH 8.0); and 5 mM MgCl2. The reaction, which was initiated by addition of the crude, mycelium-free supernatant fluid mentioned above, was carried out at 30° C. in a Varian DMS 70 spectrophotometer with a wavelength bandpass of 2 nanometers. Molar absorptivity of 4-nitrophenol at pH 8.0 was 1.62×10^4 M^-1 cm^-1.
To further examine one of these potential substrates at a greater level of sensitivity, the enzyme was incubated with [gamma-^32 P]ATP under identical conditions and assayed for the liberation of ^32 Pi. No liberation above background was detected and hydrolysis of ATP appeared to occur at a rate less than one/ten-millionth of that observed with 4-NPP.
Prospective inhibitors were added to the standard assay with 4-NPP as substrate and inhibition was monitored and expressed as percent inhibition of the untreated sample (TABLE 3).

[1] = 1 mM inhibitor, incubated with the phosphatase for 15 minutes at room temperature prior to assay, 4-NPP as substrate
[2] = 1 mM inhibitor, standard assay with 4-NPP as substrate
[3] = 10 mM inhibitor, standard assay with 4-NPP as substrate

Nc1ncnc2c1ncn2[C@@H]1O[C@H](COP(=O)(O)OP(=O)(O)OP(=O)(O)O)[C@@H](O)[C@H]1O [ATP, adenosine triphosphate]
Ki (competitive inhibition of hydrolysis of 4-NPP, read-out: Ki for ATP): 1.3 mM

CCN1C(=O)C=CC1=O [N-ethylmaleimide]
Inhibition (%) [1]: 75%

O=P(O)(O)OP(=O)(O)O [PPi, inorganic pyrophosphate]
Inhibition (%) [2]: 4% | Inhibition (%) [3]: 56%

O=C(O)CI [iodoacetate]
Inhibition (%) [1]: 96%

O=P(O)(O)O [orthophosphate]
Inhibition (%) [3]: 39%

[F-].[Na+] [sodium fluoride]
Inhibition (%) [2]: 22% | Inhibition (%) [3]: 80%
